Data reported in patent publication US10881642B2, “Autophagy enhancer and use thereof” (Industry-Academic Cooperation Foundation, Yonsei University, priority 2016, dated 2021).

Test system: HeLa cells
Test: Autophagic flux in HeLa cells (RFP-LC3/LAMP1, mRFP-GFP-LC3, FYVE-dsRed, immunoblot)
Format: cell-based
Description: FIG. 2 indicates the results of the Hela Cells treated with Compound of formula I (hereinafter referred to as MSL) showing the increase of the autophagic flux in the cells treated. FIG. 2A indicates the results of the experiments in which HeLa cells transfected with RFP-LC3 plasmid for 48 hrs were treated with compound MSL of the present disclosure or vehicle control for 1 hr, which were then […] with antibody against LAMP1. The arrows indicate puncta. LC3 or the number of puncta was also indicated as bar graph. FIG. 2B indicates the results of the experiments in which HeLa cells transfected with mRFP-GFP-LC3 plasmid for 48 hrs were treated with compound MSL of the present disclosure or vehicle control for 1 hr, in which autophagosome (yellow puncta) or autophagolysosome (red puncta) were measured using Image J software. The number of puncta was indicated as bar graph. FIG. 2C indicates the results of the experiments in which HeLa cells transfected with FYVE-dsRed plasmid for 48 hrs were treated with compound MSL of the present disclosure or vehicle control for 1 hr, in which the number of FYVE-dsRed vesicles was measured. The measured value were average of the values obtained from at least 3 images. Error bars, S.D. **, P<0.01; ***, P<0.001.
FIG. 10 is the result of the experiments using compound of formula 2 (hereinafter referred to as MSL-7) of the present disclosure as an autophagic enhancer. FIG. 10A is the result of immuneblot using the antibodies indicated using Hela cells treated with MSL or MSL-7. FIG. 10B is the result of measuring the viability of Hela cells treated with vehicle control or various concentration of MSL-7 (50-100 μM) for 48 hrs. FIG. 10C is the result of DAPI stained nuclei of TFEB-GFP HeLa cells which were treated with vehicle control or MSL-7 for 4 hrs. The graph indicates the percentage of TFEB translocated into the nuclei. Error bars, S.D. *, P<0.05; **, P<0.01; ***, P<0.001.
FIG. 12 indicates the improvement of the metabolic profile of HFD-feed mice by MSL-7: (FIG. 12A) Confocal microscopic result of HeLa cells transfected with tandem mRFP-GFP-LC3 and treated with MSL-7 in which red puncta indicates autophagolysosome. (FIG. 12B, 12C) 8 week old male C57BL/6 mice were fed with HFD or normal chow diet (NCD) for 8 weeks, and then 50 mg/kg MSL-7 was administered three times a week for 8 weeks. Non-fasting glucose level (FIG. 12B) and body weight (FIG. 12C) were monitored. (FIG. 12D) IPGTT. (FIG. 12E) AUC curve of (FIG. 12D). (FIG. 12F) ITT. (FIG. 12G) AUC curve of (FIG. 12F).
Screening of autophagy enhancer. […] Luciferase assay. Firefly and Renilla luciferase assays were conducted using the Dual-Luciferase Reporter Assay System (Promega) according to the manufacturer's recommendation. In brief, cells were lysed in 1× lysis buffer and subjected to a single round of freezing/thawing. Firefly luciferase was determined after mixing 5 μl of lysate with 25 μl of Luciferase Assay Reagent II. Renilla luciferase was then determined after further addition of 20 ul of Stop&Glo Reagent. Cell culture and media and drugs treatment. […]

Structure (SMILES) | Recruitment of FYVE-dsRed+ vesicle (1 hr) | LC3+ autophagosome colocalization with lysosomal marker LAMP1 (RFP-LC3 transfected, 1 hr) | number of yellow puncta (early autophagic organelles) and red puncta (autolysosomes) (mRFP-GFP-LC3B probe, 1 hr) | autophagy-enhancing activity (immunoblot, FIG. 10A) | formation of autophagolysosome (mRFP-GFP-LC3, red puncta)
CSc1oc(-c2ccccc2)nc1S(=O)(=O)c1ccc(F)cc1 [MSL] | increased | positive for the lysosomal markers LAMP1 | increases | – | –
COc1oc(-c2ccccc2Cl)nc1S(=O)(=O)c1ccccc1 [MSL-7, 2-(2-chlorophenyl)-5-methoxy-4-(phenylsulfonyl) oxazole] | – | – | – | definite autophagy-enhancing activity | induced
